Values joined by “and” are separate entries in the source; they are usually repeats but may differ in a detail not shown here. Identical values can stand only once. Each block holds one compound with its values, some of them ahead of it.
Test system: 616215-338-R-J1-PDC complex spheroids, viability % test/control
Test: Anticancer human tumor 616215-338-R-J1-PDC patient-derived colon adenocarcinoma cell line growth inhibition [CLK]
Conditions: for viability, T/C: stronger effect = lower value
Description: A high-throughput screen of multi-cell type tumor spheroids was designed to identify active combinations of […] and targeted small molecules. Complex spheroids include a stromal component modeled by human endothelial cells (HUVEC) and fibroblasts modeled by human mesenchymal stem cells (MSCs). The concentration ranges selected for each drug and investigational agent were based upon clinically achievable concentrations if the clinical Cmax of the agent was known.
Compounds. The drugs and investigational agents: cirtuvivint (SM08502; NSC835563), CC-671 (NSC850746), vemurafenib (NSC761431), tapotoclax (NSC804041), sotorasib (NSC818433), adagrasib (NSC831453), MRTX-1133 (NSC836407), BAY2416964 (NSC825713), copanlisib (NSC816437), inavolisib (NSC800729), abemaciclib (NSC768073), osimertinib (NSC779217), entinostat (NSC756642), eltanexor (KPT-8602, NSC794443), venetoclax (NSC766270), ceralasertib (NSC777638), bortezomib (NSC756655), olaparib (NSC753686), talazoparib (NSC767125), alisertib (NSC759677), peposertib (NSC802822), gemcitabine (NSC613327), 5-fluorouracil (NSC19893), SN-38 (NSC673596), oxaliplatin (NSC266046), paclitaxel (NSC125973), and doxorubicin (NSC123127), were obtained from the National Cancer Institute (NCI) Developmental Therapeutics Program Chemical Repository. The FDA-approved anticancer drug set is available from the Developmental Therapeutics Program at https://dtp.cancer.gov/organization/dscb/obtaining/available plates.htm. […] The stock solutions were prepared in dimethyl sulfoxide (DMSO, Sigma-Aldrich, St. Louis, MO, cat. D2650), except for the platinum complexes which were prepared in saline (Quality Biological, Gaithersburg, MD, cat. 114-055-101), at 800-fold the tested concentration and stored at -70 degrees C prior to their use. All drugs and investigational agents were tested over a range starting from a high concentration at or near the clinical Cmax and decreasing in half-log increments. If the clinical Cmax for an agent had not been determined, the highest concentration tested was 10 microM.
Cell Culture. All cells were maintained in an incubator at 37 degrees C and 5% CO2 with 95% humidity. The PDC lines were cultured according to standard operating procedures established by the NCI PDMR. Briefly, all PDCs were thawed and cultured in Matrigel-coated flasks prepared with a working solution of 1X Ham's F-12 nutrient mix, without supplementation (Invitrogen, Waltham, MA, cat. 11765054), 100 U/mL penicillin-streptomycin (Invitrogen, cat. 15140122), and 2.5% Matrigel (Corning Inc., Corning, NY, cat. 354248) for the first three passages. The 947758-054-R-J2-PDC line was cultured in 6B/Colon 1A media, which includes advanced DMEM/F-12 (Thermo Fisher Scientific, cat. 12634028), 10 mM HEPES (Thermo Fisher Scientific, cat. 15630080), 1X GlutaMAX supplement (Thermo Fisher Scientific, cat. 35050061), 0.1 mg/mL primocin (InvivoGen, cat. ant-pm-2), 10% defined fetal bovine serum, heat inactivated (HyClone Laboratories Inc., cat. SH30070.03HI), 1.25 mM N-Acetyl-L-cysteine (Sigma-Aldrich, cat. A9165), 10 mM nicotinamide (Sigma-Aldrich, cat. N0636), 1X B-27 supplement (Thermo Fisher Scientific, cat. 17504044), 1X N-2 supplement (Thermo Fisher Scientific, cat. 17502048), and 10 microM Y-27632 dihydrochloride (Tocris Bioscience, cat. 1254). The 876862-298-R-J1-PDC was cultured in 6E media, which includes all 6B/Colon 1A media components plus 50% L-WRN conditioned media (ATCC, cat. CRL-3276), 50 ng/mL recombinant human EGF recombinant protein (hEGF; Thermo Fisher Scientific, cat. PHG0311), 10 ng/mL recombinant human fibroblast growth factor 10 (hGFG-10; PeproTech, cat. 100-26), 1 ng/mL recombinant human fibroblast growth factor 2 (hFGF-2; PeproTech, cat. 100-18B), and 1 µM prostaglandin E2 (PGE2; Tocris, cat. 2296). The 227483-062-R1-J1-PDC line was cultured in Panc media, containing all 6E components except hFGF-2, with the addition of 500 nM SB-431542 (Selleckchem, cat. S1067) and 10 nM gastrin (Tocris, cat. 3006). […]
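Further: spheroids exposed to agents for 7 days.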
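Wherever viability, T/C is given: 100% = DMSO vehicle wells.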

IC50 (curve of compound): > 1000 nM
SMILES: CCN1CCN(Cc2ccc(Nc3ncc(F)c(-c4cc(F)c5nc(C)n(C(C)C)c5c4)n3)nc2)CC1
viability, T/C (compound 0.00316 µM): 104% and 92%
viability, T/C (compound 0.01 µM): 125% and 93.7%
viability, T/C (compound 0.0316 µM): 111% and 103%
viability, T/C (compound 0.1 µM): 139% and 121%
viability, T/C (compound 0.316 µM): 158% and 189%
viability, T/C (compound 1 µM): 59.4% and 69.7%

IC50 (curve of compound): 143 nM and 245 nM
SMILES: COc1c(OCCCN2CCOCC2)ccc2c3n(c(=NC(=O)c4cnc(N)nc4)nc12)CCN3
viability, T/C (compound 0.00316 µM): 101% and 89.7%
viability, T/C (compound 0.01 µM): 111% and 96.4%
viability, T/C (compound 0.0316 µM): 106% and 114%
viability, T/C (compound 0.1 µM): 57.7% and 74.8%
viability, T/C (compound 0.316 µM): 36.1% and 46%
viability, T/C (compound 1 µM): 29% and 39.8%

IC50 (curve of compound): 5250 nM and > 10000 nM
SMILES: CC1(C)CCC(CN2CCN(c3ccc(C(=O)NS(=O)(=O)c4ccc(NCC5CCOCC5)c([N+](=O)[O-])c4)c(Oc4cnc5[nH]ccc5c4)c3)CC2)=C(c2ccc(Cl)cc2)C1
viability, T/C (compound 0.0316 µM): 88.4% and 102%
viability, T/C (compound 0.1 µM): 95.6% and 102%
viability, T/C (compound 0.316 µM): 97.5% and 98.5%
viability, T/C (compound 1 µM): 90.2% and 96.7%
viability, T/C (compound 3.16 µM): 86.7% and 87.4%

SMILES: CCc1c2c(nc3ccc(O)cc13)-c1cc3c(c(=O)n1C2)COC(=O)[C@]3(O)CC + CN1CCN(c2cc(C(=O)Nc3cc4cc(-c5cnn(C)c5)ccc4cn3)ccn2)CC1
IC50 (curve of first compound, second compound 0.0316 µM): 9.64 nM
IC50 (curve of first compound, second compound 0.1 µM): 3.61 nM
IC50 (curve of first compound, second compound 0.316 µM): < 3.16 nM
IC50 (curve of first compound, second compound 1 µM): < 3.16 nM
IC50 (curve of first compound, second compound 3.16 µM): < 3.16 nM
IC50 (curve of first compound, second compound 10 µM): < 3.16 nM
viability, T/C (second compound 0.0316 µM, first compound 0.00316 µM): 98.2%
viability, T/C (second compound 0.0316 µM, first compound 0.01 µM): 42.2%
viability, T/C (second compound 0.0316 µM, first compound 0.0316 µM): 32.1%
viability, T/C (second compound 0.0316 µM, first compound 0.1 µM): 18%
viability, T/C (second compound 0.0316 µM, first compound 0.316 µM): 12.9%
viability, T/C (second compound 0.0316 µM, first compound 1 µM): 4.92%
viability, T/C (second compound 0.1 µM, first compound 0.00316 µM): 50.8%
viability, T/C (second compound 0.1 µM, first compound 0.01 µM): 40.2%
viability, T/C (second compound 0.1 µM, first compound 0.0316 µM): 19.1%
viability, T/C (second compound 0.1 µM, first compound 0.1 µM): 13.1%
viability, T/C (second compound 0.1 µM, first compound 0.316 µM): 14.1%
viability, T/C (second compound 0.1 µM, first compound 1 µM): 1.26%
viability, T/C (second compound 0.316 µM, first compound 0.00316 µM): 34.2%
viability, T/C (second compound 0.316 µM, first compound 0.01 µM): 17.8%
viability, T/C (second compound 0.316 µM, first compound 0.0316 µM): 13.5%
viability, T/C (second compound 0.316 µM, first compound 0.1 µM): 8.84%
viability, T/C (second compound 0.316 µM, first compound 0.316 µM): 1.45%
viability, T/C (second compound 0.316 µM, first compound 1 µM): 1.92%
viability, T/C (second compound 1 µM, first compound 0.00316 µM): 0.13%
viability, T/C (second compound 1 µM, first compound 0.01 µM): 0.13%
viability, T/C (second compound 1 µM, first compound 0.0316 µM): 3.09%
viability, T/C (second compound 1 µM, first compound 0.1 µM): 0.08%
viability, T/C (second compound 1 µM, first compound 0.316 µM): 0.06%
viability, T/C (second compound 1 µM, first compound 1 µM): 1.66%
viability, T/C (second compound 3.16 µM, first compound 0.00316 µM): 0.07%
viability, T/C (second compound 3.16 µM, first compound 0.01 µM): 0.12%
viability, T/C (second compound 3.16 µM, first compound 0.0316 µM): 1.53%
viability, T/C (second compound 3.16 µM, first compound 0.1 µM): 0.09%
viability, T/C (second compound 3.16 µM, first compound 0.316 µM): 3.53%
viability, T/C (second compound 3.16 µM, first compound 1 µM): 4.86%
viability, T/C (second compound 10 µM, first compound 0.00316 µM): 0.08%
viability, T/C (second compound 10 µM, first compound 0.01 µM): 0.13%
viability, T/C (second compound 10 µM, first compound 0.0316 µM): 0.18%
viability, T/C (second compound 10 µM, first compound 0.1 µM): 0.13%
viability, T/C (second compound 10 µM, first compound 0.316 µM): 3.18%
viability, T/C (second compound 10 µM, first compound 1 µM): 1.61%

Source: PubChem BioAssay AID2060610 (Molecular Pharmacology Branch, DTP, NCI, 2025)
